# Test results as given in patent US12214036B2, “Combination therapy comprising AXL/MER and PD-1/PD-L1 inhibitors” (Incyte Corporation, priority 2020, dated 2025).
# Assays:
# MBT-2 tumor = assay: MBT-2 syngeneic tumor model; type: in vivo; conditions: MBT-2 in C3H mice, oral BID, FIG. 7A
# Experimental: To test potential immunomodulatory activity of Compound 1 in vivo, antitumor efficacy studies were performed in syngeneic tumor models.
# (§1) MBT-2 cells were obtained from the Japanese Collection of Research Bioresources Cell Bank and were maintained in DMEM supplemented with 10% FBS. MC38 cells were obtained from the NCI. 4T1 cells were obtained from ATCC and maintained in RPMI media supplemented with 10% FBS. For MBT-2 experiments, 5×10^5 MBT-2 cells were inoculated subcutaneously into the right hind flank of 6- to 8-week-old C3H mice or athymic nude mice (Charles River Laboratories, Wilmington, Mass.). For MC38 studies, 12-week old female C57BL/6 mice were inoculated with brei of MC38 tumors (in-vivo passage 6) into the right hind flank. For 4T1 studies, 7.5×10^5 4 T1 cells were inoculated subcutaneously into the right hind flank of 6- to 8-week-old female BALB/c mice or athymic nude mice (Charles River Laboratories). […] Mice were monitored for tumor growth and overt tolerability over the course of the experiment. […] Tumor volume was calculated using the formula (L×W^2)/2, where L and W refer to the length and width dimensions, respectively. Tumor growth inhibition (TGI) was calculated using the formula (1−(VT/VC))×100, where VT is the tumor volume of the treatment group on the last day of treatment, and VC is the tumor volume of the control group on the last day of treatment. […]
# [1] = tested on: macrophage-mediated suppression of T-cell proliferation; assay: Macrophage suppression of T-cell proliferation assay; type: cell-based, human
# Experimental: To examine the functional activity of Compound 1, the effects on macrophage-mediated suppression of T-cell proliferation were evaluated.
# Human PBMCs were isolated from the peripheral blood of healthy donors by density gradient centrifugation on Ficoll-Hypaque (GE Healthcare, Chicago, Ill.; #17-1440-02) followed by purification with anti-CD14 Microbeads (Miltenyi Biotec; #130-050-201). Isolated CD14^+ monocytes/macrophages were incubated with 100 ng/mL M-CSF (R&D Systems; #216-MC) and 50 ng/mL TGFβ1 (R&D Systems; #240-B) at 37° C. for 6 days; 100 μL/well of CD14^+ macrophages were seeded at 0.5×10^6 cells/mL in a 96-well round-bottomed culture plate (Costar; #3799) and treated with Compound 1 overnight at 37° C. CD4^+CD25^− effector T (Teff) cells were isolated using the Dynabeads regulatory CD4^+CD25^+ T-cell kit (Life Technologies; #11363D) and the Teff cells were labeled with carboxyfluorescein succinimidyl ester (CFSE) using the CellTrace CFSE Cell Proliferation kit (ThermoFisher Scientific; #C34554). […] Teff cells were analyzed by a flow cytometer (BD LSRFortessa X-20, BD Biosciences, San Jose, Calif.) and the cell-free supernatant was tested in the Luminex assay (Millipore; #HCYTOMAG-60K_38plex) to measure the concentrations of different cytokines and chemokines.
# [2] = tested on: TYRO3-expressing BAF3 cells; assay: BAF3-TYRO3 cell proliferation assay (CellTiter-Glo); type: cell-based, mouse
# Description: To evaluate the cellular potency and selectivity within the TAM receptor family, mouse BAF3 cell lines with stable expression of AXL, MER, or TYRO3 were generated.
# The cytoplasmic domain of AXL, MER, or TYRO3 fused with dimerization sequence and HA tag was cloned into a pMSCV (murine stem cell virus) vector with a puromycin-resistance marker to generate three constructs individually by electroporation into BAF3 cells. Single clones that were IL-3-independent and puromycin-resistant were selected and characterized. To evaluate effects on BAF3 cell proliferation, 1000 cells/well of BAF3, BAF3-AXL, BAF3 MER, or BAF3-TYRO3 cells were treated in the presence or absence of Compound 1 at various concentrations (10 concentration points with a three-fold dilution factor from the highest concentration of 10 μM) diluted in RPMI-1640 with 2% FBS for 48 hours in a 384-well plate. Cell viability was measured by ATP assay (CellTiter-Glo Assay, Promega, Madison, Wis.) according to the manufacturer's procedure. The data were converted to percent inhibition relative to DMSO control, and IC50 curves were fitted using GraphPad Prism software.
# CTG-1302 tumors = assay: Sarcoma PDX model CTG-1302 (leiomyosarcoma); type: in vivo, athymic nude mice; conditions: CTG-1302, 10, 30, 100 mg/kg BID oral, FIG. 9B
# Description: as §1
# The activity of Compound 1 in sarcoma PDX models was evaluated as described in Example H for PDX models. […] Three mice per group were analyzed. […]
structure (smiles),measurement,setting,value
"CC(C)C(=O)N1CCC(c2cc(-c3ccc(NC(=O)c4cn(C(C)C)c(=O)n(-c5ccccn5)c4=O)cc3)c3c(N)ncnn23)CC1 [Compound 1, N-(4-(4-Amino-7-(1-isobutyrylpiperidin-4-yl)pyrrolo[1,2-f][1,2,4]triazin-5-yl)phenyl)-1-isopropyl-2,4-dioxo-3-(pyridin-2-yl)-1,2,3,4-tetrahydropyrimidine-5-carboxamide]",antitumor efficacy (tumor volume),MBT-2 tumor,dose-dependent efficacy
same,effect on macrophage-mediated suppression of T-cell proliferation,[1]; FIG. 5A,partially reversed macrophage-mediated suppression of T-cell proliferation
same,IFN-γ production,"[1]; macrophage/T-cell co-culture supernatant, FIG. 5B",increase in IFN-γ production
same,selectivity against TYRO3 (cellular),[2]; BAF3 transfectants,> 30 fold
same,IC50,"[2]; Mus musculus, BaF3, 48 hours, 2% FBS, read-out: IC50, growth of TYRO3-expressing BAF3 cells",0.498 ± 0.161 µM
same,antitumor response,CTG-1302 tumors,robust antitumor response
